Measurements taken from patent US11174226B2, “Azetidinimines as carbapenemases inhibitors” (priority 2015, dated 2021).

Legend:
NDM-1 Enzyme = NDM-1 Enzyme (Klebsiella pneumoniae, UniProt C7C422); test: Imipenem hydrolysis followed by UV absorbance slope, NDM-1 enzyme; format: biochemical; conditions: for inhibition at 5 µM: C 5 μM
Method: (§1) These tests were conducted by comparing UV absorbance slope measurements of impenem alone, and then imipenem with the concerned azetidinimines at given concentrations in the presence of the enzyme. It was thus possible to monitor the hydrolysis of imipenem. Lower the value of the slope, the higher is the percentage of inhibition of the enzyme.

KPC Enzyme = KPC Enzyme (Klebsiella pneumoniae, UniProt Q9F663); test: Imipenem hydrolysis followed by UV absorbance slope, KPC enzyme; format: biochemical; conditions: for KPC Enzyme Inhibition % / inhibition at 10 µM: C 10 μM; for inhibition at 5 µM: C 5 μM
Method: as §1

OXA-48 Enzyme = OXA-48 Enzyme (Klebsiella pneumoniae, UniProt Q6XEC0); test: Imipenem hydrolysis followed by UV absorbance slope, OXA-48 enzyme; format: biochemical; conditions: for inhibition at 10 µM / OXA-48 Enzyme Inhibition %: C 10 μM; for OXA-48 Enzyme, effect in words: Inhibition %, IC50
Method: as §1

[1] = Stability tests of imipenem with increasing concentrations of tested molecules
Method: as §1
Stability tests of imipenem with increasing concentrations of tested molecules of the present invention (T4#1, i.e. compound #1 of table 4; T4#7 i.e. compound #7 of table 4; T4#9 i.e. compound #9 of table 4; T4#2 i.e. compound #2 of table 4) were also conducted (Table 2).

Sequence of NDM-1 Enzyme (C7C422 29-270, looked up, species assumed): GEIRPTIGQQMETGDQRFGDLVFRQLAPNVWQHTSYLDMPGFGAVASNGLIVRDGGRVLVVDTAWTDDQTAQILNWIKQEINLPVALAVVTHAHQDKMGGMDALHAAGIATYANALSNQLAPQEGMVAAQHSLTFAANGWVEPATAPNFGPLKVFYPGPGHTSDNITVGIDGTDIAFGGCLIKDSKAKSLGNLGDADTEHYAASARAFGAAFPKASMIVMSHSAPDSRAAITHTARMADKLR
Sequence of KPC Enzyme (Q9F663 25-293, looked up): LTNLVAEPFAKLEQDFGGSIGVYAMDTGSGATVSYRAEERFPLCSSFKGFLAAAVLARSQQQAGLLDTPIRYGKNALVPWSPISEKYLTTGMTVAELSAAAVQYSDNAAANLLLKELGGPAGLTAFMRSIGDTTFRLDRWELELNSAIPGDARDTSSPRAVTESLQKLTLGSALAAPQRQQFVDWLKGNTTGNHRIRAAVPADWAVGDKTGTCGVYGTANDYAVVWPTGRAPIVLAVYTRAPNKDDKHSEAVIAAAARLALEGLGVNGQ
Sequence of OXA-48 Enzyme (Q6XEC0 23-265, looked up, species assumed): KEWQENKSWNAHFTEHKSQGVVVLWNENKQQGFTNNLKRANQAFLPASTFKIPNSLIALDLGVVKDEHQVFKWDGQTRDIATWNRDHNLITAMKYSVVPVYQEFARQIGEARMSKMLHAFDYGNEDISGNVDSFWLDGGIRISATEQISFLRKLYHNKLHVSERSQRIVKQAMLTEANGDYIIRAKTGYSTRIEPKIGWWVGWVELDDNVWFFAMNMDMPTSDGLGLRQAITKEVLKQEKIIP

Compound	IC50 (NDM-1 Enzyme) [µM]	IC50 (KPC Enzyme) [µM]	IC50 (OXA-48 Enzyme) [µM]	also measured
COc1ccc(N2/C(=N/c3ccccc3)CC2c2ccccc2)cc1 (single isomer, unassigned) [Enantiomer 1]	< 5	< 10		NDM-1 Enzyme Inhibition % (NDM-1 Enzyme; C 10 μM): 97%; KPC Enzyme Inhibition % (KPC Enzyme): 70%
Oc1ccc(N2/C(=N/c3ccccc3)CC2c2ccccc2)cc1 (stereo not shown)	0.8	> 50	> 10	
COc1ccc(N2/C(=N/c3ccccc3)CC2c2ccc3ccccc3c2)cc1 (stereo not shown)	2.5 to 5	5 to 7	10 to 20	inhibition at 5 µM (NDM-1 Enzyme): 94%; inhibition at 20 µM (OXA-48 Enzyme; C 20 μM): 94%; inhibition at 10 µM (KPC Enzyme): 99%
COC(=O)c1ccc(C2C/C(=N\c3ccccc3)N2c2ccccc2)cc1 (stereo not shown)	4.8			inhibition at 10 µM (OXA-48 Enzyme): 3.5%; inhibition at 10 µM (KPC Enzyme): 6%
O=C(O)COc1ccc(N2/C(=N/c3ccccc3)CC2c2ccc(Cl)cc2)cc1 (stereo not shown)	0.6	> 50	> 50	
COc1ccc(N2/C(=N/c3ccccc3)CC2c2cccnc2)cc1 (stereo not shown)	> 100	> 100		inhibition at 100 µM (NDM-1 Enzyme; C 100 μM): 23%; OXA-48 Enzyme, effect in words (OXA-48 Enzyme): No reported effect; inhibition at 100 µM (KPC Enzyme; C 100 μM): 12%
[N-]=[N+]=NCc1ccc(C2C/C(=N\c3ccccc3)N2c2ccccc2)cc1 (stereo not shown)			> 50	inhibition at 10 µM (NDM-1 Enzyme; C 10 μM): 100%; inhibition at 10 µM (KPC Enzyme): 89%
COc1ccc(N2/C(=N/c3ccccc3)CC2c2ccccc2)cc1 (stereo not shown) [drawing 74]	2 to 5	~7		inhibition at 10 µM (NDM-1 Enzyme; C 10 μM): 90%; OXA-48 Enzyme, effect in words (OXA-48 Enzyme): No reported effect
COc1cc(N2/C(=N/c3ccccc3)CC2c2ccccc2)cc(OC)c1OC (stereo not shown) [drawing 75]	> 50	> 50		inhibition at 50 µM (NDM-1 Enzyme; C 50 μM): 78%; OXA-48 Enzyme, effect in words (OXA-48 Enzyme): No reported effect
Oc1ccc(N2/C(=N/c3ccccc3)CC2c2ccc(Cl)cc2)cc1 (stereo not shown)	3.6	5 to 7	> 10	
COc1ccc(N2/C(=N/c3ccccc3)CC2c2ccccc2)cc1 (stereo not shown) [T4#1]				Slope (stability test of imipenem) ([1]; C 1 μM of tested molecule): 9; Slope (stability test of imipenem) ([1]; C 10 μM of tested molecule): 50; Slope (stability test of imipenem) ([1]; C 100 μM of tested molecule): 506
COc1ccc(C2C/C(=N\c3ccccc3)N2c2ccc(OC)cc2)cc1 (stereo not shown)	5 to 10			inhibition at 10 µM (NDM-1 Enzyme; C 10 μM): 67%; inhibition at 10 µM (OXA-48 Enzyme): 3%; inhibition at 10 µM (KPC Enzyme): 7%
COc1ccc(N2/C(=N/c3ccccc3)CC2c2ccc(F)cc2)cc1 (stereo not shown)				inhibition at 10 µM (NDM-1 Enzyme; C 10 μM): 9%; OXA-48 Enzyme, effect in words (OXA-48 Enzyme): No reported effect; inhibition at 10 µM (KPC Enzyme): 10%
COc1ccc(N2/C(=N/c3ccccc3)CC2c2ccccc2)cc1 (single isomer, unassigned) [Enantiomer 2]	< 5	> 10		inhibition at 10 µM (NDM-1 Enzyme; C 10 μM): 95%; KPC Enzyme Inhibition % (KPC Enzyme): 45%
COc1cccc(N2/C(=N/c3ccccc3)CC2c2ccccc2)c1 (stereo not shown)	1.3	5 to 10	> 50	
COc1ccc(C2C/C(=N\c3ccccc3)N2c2ccccc2)cc1 (stereo not shown) [drawing 77]	> 10			inhibition at 20 µM (NDM-1 Enzyme; C 20 μM): 58%; OXA-48 Enzyme, effect in words (OXA-48 Enzyme): No reported effect; KPC Enzyme, effect in words (KPC Enzyme; Inhibition %, IC50): No reported effect
CCOc1ccc(N2/C(=N/c3ccccc3)CC2c2ccccc2)cc1 (stereo not shown)	0.5 to 5	< 5	> 10	inhibition at 5 µM (NDM-1 Enzyme): 100%; inhibition at 10 µM (OXA-48 Enzyme): 45%; inhibition at 5 µM (KPC Enzyme): 100%
c1ccc(/N=C2\CC(c3ccccc3)N2c2ccc3c(c2)OCCO3)cc1 (stereo not shown)	1.3	5 to 10	> 50	
c1ccc(/N=C2\CC(c3ccccc3)N2c2ccccc2)cc1 (stereo not shown)	1.2	6		OXA-48 Enzyme Inhibition % (OXA-48 Enzyme): No measurable effect at 10 μM
CCOc1ccc(N2/C(=N/c3ccc(I)cc3)CC2c2ccc3ccccc3c2)cc1 (stereo not shown)	0.5	2.5	6.2	
COc1ccc(N2/C(=N/c3ccc(Cl)cc3)CC2c2ccccc2)cc1 (stereo not shown)		2	> 50	inhibition at 10 µM (NDM-1 Enzyme; C 10 μM): 100%

Compound	IC50 (NDM-1 Enzyme) [µM]	IC50 (KPC Enzyme) [µM]	IC50 (OXA-48 Enzyme) [µM]	also measured
COc1cc(N2/C(=N/c3ccccc3)CC2c2ccccc2)cc(OC)c1OC (stereo not shown) [T4#7, (E)-N-(4-phenyl-1-(3,4,5-trimethoxyphenyl)azetidin-2-ylidene)aniline]				Slope (stability test of imipenem) ([1]; C 1 μM of tested molecule): 0; Slope (stability test of imipenem) ([1]; C 10 μM of tested molecule): 10; Slope (stability test of imipenem) ([1]; C 100 μM of tested molecule): 174
COc1ccc(N2/C(=N/c3ccccc3)CC2c2ccccc2)cc1OC (stereo not shown)	5 to 10			inhibition at 10 µM (OXA-48 Enzyme): 9%; inhibition at 10 µM (KPC Enzyme): 17%
O=C(O)c1ccc(C2C/C(=N\c3ccccc3)N2c2ccccc2)cc1 (stereo not shown)	0.7	> 50	> 50	
COc1ccc(N2/C(=N/c3ccc(I)cc3)CC2c2ccccc2)cc1 (stereo not shown)	1.1	3.3	9.2	
COc1ccc(N2/C(=N/c3ccccc3)CC2c2ccc(Cl)cc2)cc1 (stereo not shown) [T4#9, (E)-N-(4-(4-chlorophenyl)-1-(4-methoxyphenyl)azetidin-2-ylidene)aniline]				Slope (stability test of imipenem) ([1]; C 1 μM of tested molecule): 2; Slope (stability test of imipenem) ([1]; C 10 μM of tested molecule): 38; Slope (stability test of imipenem) ([1]; C 100 μM of tested molecule): 390
COc1ccc(N2/C(=N/c3ccc(C(F)(F)F)cc3)CC2c2ccc(Cl)cc2)cc1 (stereo not shown)		3.6	> 50	inhibition at 10 µM (NDM-1 Enzyme; C 10 μM): 100%
CC(C)(C)OC(=O)c1ccc(C2C/C(=N\c3ccccc3)N2c2ccccc2)cc1 (stereo not shown)	1.8			inhibition at 10 µM (OXA-48 Enzyme): 32%; inhibition at 10 µM (KPC Enzyme): 45%
CC(C)(C)OC(=O)COc1ccc(N2/C(=N/c3ccccc3)CC2c2ccc(Cl)cc2)cc1 (stereo not shown)	2.6	1.3	> 50	
COc1ccc(N2/C(=N/c3ccccc3)CC2c2ccc(Cl)cc2)cc1 (stereo not shown) [drawing 76]	2 to 5			inhibition at 10 µM (NDM-1 Enzyme; C 10 μM): 96%; OXA-48 Enzyme IC50 (OXA-48 Enzyme): Solubility problems; inhibition at 50 µM (OXA-48 Enzyme; C 50 μM): 21%; inhibition at 50 µM (KPC Enzyme; C 50 μM): 44%
CSc1ccc(N2/C(=N/c3ccccc3)CC2c2ccccc2)cc1 (stereo not shown)	< 1	< 10		inhibition at 5 µM (NDM-1 Enzyme): 98%; inhibition at 10 µM (OXA-48 Enzyme): 15%; inhibition at 20 µM (KPC Enzyme; C 20 μM): 82%
COc1ccccc1N1/C(=N/c2ccccc2)CC1c1ccc(Cl)cc1 (stereo not shown)	1.1	5 to 10	> 50	
ClCc1ccc(C2C/C(=N\c3ccccc3)N2c2ccccc2)cc1 (stereo not shown)	2.5	6		OXA-48 Enzyme Inhibition % (OXA-48 Enzyme): No measurable effect at 10 μM
c1ccc(/N=C2\CC(c3ccccc3)N2c2ccc3c(c2)OCO3)cc1 (stereo not shown)	5			inhibition at 10 µM (OXA-48 Enzyme): 20%; inhibition at 10 µM (KPC Enzyme): 6%
c1ccc(COc2ccc(N3/C(=N/c4ccccc4)CC3c3ccccc3)cc2)cc1 (stereo not shown)	0.4			inhibition at 10 µM (OXA-48 Enzyme): 31%; inhibition at 10 µM (KPC Enzyme): 86%
CC(C)(C)OC(=O)NCCOC(=O)c1ccc(C2C/C(=N\c3ccccc3)N2c2ccccc2)cc1 (stereo not shown)	2.9		> 50	
COc1ccc(N2/C(=N/c3ccccc3)CC2c2cc(Cl)cc(Cl)c2)cc1 (stereo not shown)	2.5 to 5	2.5 to 5		inhibition at 5 µM (NDM-1 Enzyme): 97%; inhibition at 5 µM (OXA-48 Enzyme; C 5 μM): 15%; inhibition at 5 µM (KPC Enzyme): 84%
CCOc1ccc(N2/C(=N/c3ccc(OC)cc3)CC2c2ccc3ccccc3c2)cc1 (stereo not shown)	0.6	2.4	7.4	
COc1cccc(N2/C(=N/c3ccccc3)CC2c2ccc(Cl)cc2)c1 (stereo not shown)	0.4	2.5 to 5	> 50	
COc1ccc(N2/C(=N/c3ccc(I)cc3)CC2c2cc(Cl)cc(Cl)c2)cc1 (stereo not shown)	0.5	2.9	8.5	
COc1ccc(N2/C(=N/c3ccc(I)cc3)CC2c2ccc(Cl)cc2)cc1 (stereo not shown)	0.7	2.7	7.5	
COc1ccc(N2/C(=N/c3ccc(Cl)cc3)CC2c2ccc(Cl)cc2)cc1 (stereo not shown)	0.5	2.9	> 50	
